This is an account of results in PMC4620497 (Scientific Reports, 2015).

The target in one assay is T1, ACVR1B (Homo sapiens, UniProt P36896).
T1 construct: purchased DiscoveRx KINOMEscan (Ambit Biosciences)
Put plainly: KINOMEscan panel screen. The conditions noted are these: read-out: Percent Control(%). Type of assay: binding.

The next assay concerns the target T2, CSF1R (Homo sapiens, UniProt P07333).
T2 construct: purchased DiscoveRx KINOMEscan (Ambit Biosciences)
In words: KINOMEscan panel screen. The conditions noted are these: read-out: Percent Control(%). Type of assay: binding.

In the next assay the target is T3, CSNK2A2 (Homo sapiens, UniProt P19784).
T3 construct: purchased DiscoveRx KINOMEscan (Ambit Biosciences)
In words: KINOMEscan panel screen. It is filed as binding. Particulars: read-out: Percent Control(%).

Another assay has as its target T4, DAPK1 (Homo sapiens, UniProt P53355).
T4 construct: purchased DiscoveRx KINOMEscan (Ambit Biosciences)
In words: KINOMEscan panel screen. Type of assay: binding. The conditions noted are these: read-out: Percent Control(%).

Another assay deals with T5, DCAMKL1 (Homo sapiens, UniProt O15075).
T5 construct: purchased DiscoveRx KINOMEscan (Ambit Biosciences)
Put plainly: KINOMEscan panel screen. Type of assay: binding. The conditions noted are these: read-out: Percent Control(%).

A further assay has as its target T6, EPHB4 (Homo sapiens, UniProt P54760).
T6 construct: purchased DiscoveRx KINOMEscan (Ambit Biosciences)
In words: KINOMEscan panel screen. It is filed as binding. The conditions noted are these: read-out: Percent Control(%).

A further assay deals with T7, FGR (Homo sapiens, UniProt P09769).
T7 construct: purchased DiscoveRx KINOMEscan (Ambit Biosciences)
Put plainly: KINOMEscan panel screen. Particulars: read-out: Percent Control(%). It is filed as binding.

A further assay deals with T8, IGF1R (Homo sapiens, UniProt P08069).
T8 construct: DNA tag (qPCR read-out); purchased Ambit Biosciences (KINOMEscan service)
Put plainly: KINOMEscan panel screen. Particulars: read-out: Percent Control(%). It is filed as binding.

A further assay deals with T9, ITK (Homo sapiens, UniProt Q08881).
T9 construct: purchased DiscoveRx KINOMEscan (Ambit Biosciences)
In words: KINOMEscan panel screen. Type of assay: binding. The conditions noted are these: read-out: Percent Control(%).

The next assay concerns the target T10, MKNK2 (Homo sapiens, UniProt Q9HBH9).
T10 construct: purchased DiscoveRx KINOMEscan (Ambit Biosciences)
Put plainly: KINOMEscan panel screen. Particulars: read-out: Percent Control(%). Type of assay: binding.

Another assay deals with T11, MRCKA (Homo sapiens, UniProt Q5VT25).
T11 construct: purchased DiscoveRx KINOMEscan (Ambit Biosciences)
In words: KINOMEscan panel screen. Type of assay: binding. The conditions noted are these: read-out: Percent Control(%).

The next assay has as its target T12, RET (Homo sapiens, UniProt P07949).
T12 construct: purchased DiscoveRx KINOMEscan (Ambit Biosciences)
Put plainly: KINOMEscan panel screen. It is filed as binding. Particulars: read-out: Percent Control(%).

The next assay deals with T13, SGK2 (Homo sapiens, UniProt Q9HBY8).
T13 construct: purchased DiscoveRx KINOMEscan (Ambit Biosciences)
In words: KINOMEscan panel screen. Type of assay: binding. The conditions noted are these: read-out: Percent Control(%).

For the next assay, the target named is T14, SLK (Homo sapiens, UniProt Q9H2G2).
T14 construct: purchased DiscoveRx KINOMEscan (Ambit Biosciences)
Put plainly: KINOMEscan panel screen. It is filed as binding. Particulars: read-out: Percent Control(%).

The next assay addresses T15, YANK2 (Homo sapiens, UniProt Q9NY57).
T15 construct: purchased DiscoveRx KINOMEscan (Ambit Biosciences)
Put plainly: KINOMEscan panel screen. Type of assay: binding. The conditions noted are these: read-out: Percent Control(%).

For a further assay, the target named is T16, ZAP70 (Homo sapiens, UniProt P43403).
T16 construct: purchased DiscoveRx KINOMEscan (Ambit Biosciences)
Put plainly: KINOMEscan panel screen. It is filed as binding. The conditions noted are these: read-out: Percent Control(%).

Another assay has as its target T17, MAST1 (Homo sapiens, UniProt Q9Y2H9).
T17 construct: purchased DiscoveRx KINOMEscan (Ambit Biosciences)
In words: KINOMEscan kinase binding assay (Kd).

Another assay relates to KG-1 SP cells. Put plainly: Hoechst 33342 side population (SP) cell assay. Type of assay: cell-based, human. The conditions noted are these: 5 μM, 48 h; vehicle 3.1%. From the text: (§1) Flow cytometry and Hoechst 33342 dye efflux assays were used to examine the possible influences of SKLB-677 on leukemia SP cells. This method is based on the findings that stem cells and early progenitors are able to pump out Hoechst via the ATP-Binding Cassette (ABC) transporters. This property allows the observation of a cell population (called side population) that has low Hoechst fluorescence in the blue and red regions of the spectrum. In this study, the Hoechst SP cell assays were performed with human AML MV4-11 and KG-1 cells, as well as primary AML PBMCs. […] As shown in Fig. 4a and Supplementary Fig. S6, MV4-11, KG-1, and primary AML PBMCs contained about 22.3%, 3.1%, and 0.5% SP cells, respectively.
(§2) Supplementary Mat eri al and Methods […]
(§3) Reactions were monitored by thin la yer chrom atograph y (TLC) on M erck silica gel 60 F-254 thin la yer plates. 1H NMR and 13C NMR spectra were recorded on a Bruker AV -400 spectrometer at 400 MHz and 100 MHz, respectivel y. […]
(§4) Lo w -resolution and high-resolution mass spectral (MS) data were determined on an Agilent 1100 Series LCMS with UV detection at 254nm in low -reson ance electrospray mode (ESI). All final compounds were purified to >95% purity, as determined b y hi gh- performance liquid chromatograph y (HP LC). […]

Assay [1] concerns primary AML PBMCs SP cells. Put plainly: Hoechst 33342 side population (SP) cell assay. Type of assay: cell-based, human. Particulars: 5 μM, 48 h; vehicle 0.5%.
From the text: as §1, §2, §3, §4

The next assay relates to HepG2. Put plainly: MTT cell viability assay. Particulars: Homo sapiens, HepG2, 72 h.

T13 sequence (Q9HBY8 whole entry): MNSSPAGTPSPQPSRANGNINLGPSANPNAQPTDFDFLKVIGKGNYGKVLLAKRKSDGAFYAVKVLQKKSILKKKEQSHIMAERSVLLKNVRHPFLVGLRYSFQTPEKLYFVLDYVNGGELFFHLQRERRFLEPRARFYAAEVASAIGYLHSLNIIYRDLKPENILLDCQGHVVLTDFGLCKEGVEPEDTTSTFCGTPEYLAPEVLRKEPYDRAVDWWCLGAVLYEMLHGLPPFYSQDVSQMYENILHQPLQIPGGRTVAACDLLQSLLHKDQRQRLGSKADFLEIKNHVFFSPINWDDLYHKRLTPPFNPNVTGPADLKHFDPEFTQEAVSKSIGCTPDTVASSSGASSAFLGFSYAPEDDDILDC
T11 sequence (Q5VT25 whole entry): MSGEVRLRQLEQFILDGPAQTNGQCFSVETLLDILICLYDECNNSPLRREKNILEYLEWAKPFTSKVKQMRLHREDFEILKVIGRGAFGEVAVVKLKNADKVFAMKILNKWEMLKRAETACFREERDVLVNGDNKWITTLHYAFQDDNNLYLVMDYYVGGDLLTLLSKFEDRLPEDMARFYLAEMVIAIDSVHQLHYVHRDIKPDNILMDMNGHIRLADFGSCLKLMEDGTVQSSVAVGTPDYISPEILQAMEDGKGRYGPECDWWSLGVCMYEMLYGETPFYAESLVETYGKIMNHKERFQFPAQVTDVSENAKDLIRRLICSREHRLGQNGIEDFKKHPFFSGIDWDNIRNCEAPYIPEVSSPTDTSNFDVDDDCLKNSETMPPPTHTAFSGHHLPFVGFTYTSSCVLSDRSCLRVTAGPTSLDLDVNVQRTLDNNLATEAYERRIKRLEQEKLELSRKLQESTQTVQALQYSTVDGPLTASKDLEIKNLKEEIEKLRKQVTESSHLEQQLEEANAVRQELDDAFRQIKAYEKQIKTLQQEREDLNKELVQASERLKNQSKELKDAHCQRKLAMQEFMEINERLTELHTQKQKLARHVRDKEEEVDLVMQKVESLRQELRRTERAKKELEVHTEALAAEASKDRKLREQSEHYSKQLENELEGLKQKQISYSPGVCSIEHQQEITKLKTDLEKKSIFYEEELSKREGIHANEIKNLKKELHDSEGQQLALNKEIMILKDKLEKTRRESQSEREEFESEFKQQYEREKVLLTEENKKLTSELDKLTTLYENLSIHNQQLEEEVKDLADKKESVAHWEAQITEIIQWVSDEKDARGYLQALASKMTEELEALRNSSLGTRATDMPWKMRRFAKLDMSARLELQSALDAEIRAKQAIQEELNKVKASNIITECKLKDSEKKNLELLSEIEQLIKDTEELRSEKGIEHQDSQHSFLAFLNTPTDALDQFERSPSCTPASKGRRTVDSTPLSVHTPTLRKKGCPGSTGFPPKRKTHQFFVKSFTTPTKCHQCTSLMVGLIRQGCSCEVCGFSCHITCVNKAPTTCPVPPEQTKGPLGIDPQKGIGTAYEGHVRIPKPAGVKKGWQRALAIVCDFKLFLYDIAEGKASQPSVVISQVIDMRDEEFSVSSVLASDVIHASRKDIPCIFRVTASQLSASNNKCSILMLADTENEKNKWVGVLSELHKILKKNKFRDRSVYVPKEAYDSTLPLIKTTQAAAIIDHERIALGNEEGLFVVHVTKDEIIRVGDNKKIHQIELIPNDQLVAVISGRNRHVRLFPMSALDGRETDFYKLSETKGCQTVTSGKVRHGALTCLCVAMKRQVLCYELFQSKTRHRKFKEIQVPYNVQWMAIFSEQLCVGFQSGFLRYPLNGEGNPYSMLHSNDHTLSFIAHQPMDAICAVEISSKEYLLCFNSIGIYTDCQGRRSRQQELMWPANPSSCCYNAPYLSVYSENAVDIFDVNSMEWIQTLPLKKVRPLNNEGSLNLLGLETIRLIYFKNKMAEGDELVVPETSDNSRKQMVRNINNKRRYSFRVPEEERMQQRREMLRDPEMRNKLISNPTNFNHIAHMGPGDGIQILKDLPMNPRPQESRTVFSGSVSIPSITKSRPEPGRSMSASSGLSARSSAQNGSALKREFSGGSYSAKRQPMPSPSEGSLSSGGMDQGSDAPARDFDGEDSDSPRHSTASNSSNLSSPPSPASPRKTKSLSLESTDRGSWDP
T7 sequence (P09769 whole entry): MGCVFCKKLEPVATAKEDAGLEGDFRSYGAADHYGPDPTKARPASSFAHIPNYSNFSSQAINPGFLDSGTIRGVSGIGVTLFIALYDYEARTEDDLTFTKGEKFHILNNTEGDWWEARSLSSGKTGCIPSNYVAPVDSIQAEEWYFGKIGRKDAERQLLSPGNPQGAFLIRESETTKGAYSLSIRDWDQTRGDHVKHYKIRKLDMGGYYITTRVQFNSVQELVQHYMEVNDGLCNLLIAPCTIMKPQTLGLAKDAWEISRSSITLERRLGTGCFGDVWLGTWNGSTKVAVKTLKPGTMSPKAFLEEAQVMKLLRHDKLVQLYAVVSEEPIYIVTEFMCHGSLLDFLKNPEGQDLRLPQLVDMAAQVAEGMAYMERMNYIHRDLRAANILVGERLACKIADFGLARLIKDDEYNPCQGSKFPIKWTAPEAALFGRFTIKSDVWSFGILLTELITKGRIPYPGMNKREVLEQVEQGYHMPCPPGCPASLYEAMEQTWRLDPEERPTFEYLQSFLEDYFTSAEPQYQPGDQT
T16 sequence (P43403 whole entry): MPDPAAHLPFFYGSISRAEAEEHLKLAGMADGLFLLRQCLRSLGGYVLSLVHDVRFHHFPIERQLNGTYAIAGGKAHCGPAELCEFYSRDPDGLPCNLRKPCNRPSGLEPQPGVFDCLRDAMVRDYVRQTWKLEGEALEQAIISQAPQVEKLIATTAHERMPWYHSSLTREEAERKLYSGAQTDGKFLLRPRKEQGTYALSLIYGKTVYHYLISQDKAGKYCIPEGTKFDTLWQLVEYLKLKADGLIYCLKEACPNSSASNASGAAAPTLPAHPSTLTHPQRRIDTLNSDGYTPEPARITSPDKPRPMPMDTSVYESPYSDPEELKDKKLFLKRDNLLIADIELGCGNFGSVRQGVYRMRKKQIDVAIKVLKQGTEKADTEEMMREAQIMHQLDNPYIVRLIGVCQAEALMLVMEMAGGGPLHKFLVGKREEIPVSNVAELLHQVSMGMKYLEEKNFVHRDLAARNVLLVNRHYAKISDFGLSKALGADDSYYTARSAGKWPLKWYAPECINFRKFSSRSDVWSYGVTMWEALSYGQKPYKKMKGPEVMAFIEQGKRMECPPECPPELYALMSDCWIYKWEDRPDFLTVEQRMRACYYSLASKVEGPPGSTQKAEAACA
T9 sequence (Q08881 whole entry): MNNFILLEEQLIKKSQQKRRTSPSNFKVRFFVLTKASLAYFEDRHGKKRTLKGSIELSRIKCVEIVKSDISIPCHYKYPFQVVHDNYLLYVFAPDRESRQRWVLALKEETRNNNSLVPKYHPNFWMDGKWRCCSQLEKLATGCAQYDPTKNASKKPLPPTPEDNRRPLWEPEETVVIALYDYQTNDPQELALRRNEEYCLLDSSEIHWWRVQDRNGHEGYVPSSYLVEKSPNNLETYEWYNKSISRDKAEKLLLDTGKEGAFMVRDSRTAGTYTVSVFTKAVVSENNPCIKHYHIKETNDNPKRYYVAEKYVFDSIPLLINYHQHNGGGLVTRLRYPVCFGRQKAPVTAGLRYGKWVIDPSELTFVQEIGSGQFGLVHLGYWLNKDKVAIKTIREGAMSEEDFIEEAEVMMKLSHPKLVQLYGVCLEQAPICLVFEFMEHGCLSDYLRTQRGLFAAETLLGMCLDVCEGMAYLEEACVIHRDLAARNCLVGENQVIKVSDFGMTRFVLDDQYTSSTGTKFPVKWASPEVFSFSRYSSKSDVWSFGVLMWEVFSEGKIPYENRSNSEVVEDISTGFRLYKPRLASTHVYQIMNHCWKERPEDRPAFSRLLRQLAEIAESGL
T6 sequence (P54760 16-987): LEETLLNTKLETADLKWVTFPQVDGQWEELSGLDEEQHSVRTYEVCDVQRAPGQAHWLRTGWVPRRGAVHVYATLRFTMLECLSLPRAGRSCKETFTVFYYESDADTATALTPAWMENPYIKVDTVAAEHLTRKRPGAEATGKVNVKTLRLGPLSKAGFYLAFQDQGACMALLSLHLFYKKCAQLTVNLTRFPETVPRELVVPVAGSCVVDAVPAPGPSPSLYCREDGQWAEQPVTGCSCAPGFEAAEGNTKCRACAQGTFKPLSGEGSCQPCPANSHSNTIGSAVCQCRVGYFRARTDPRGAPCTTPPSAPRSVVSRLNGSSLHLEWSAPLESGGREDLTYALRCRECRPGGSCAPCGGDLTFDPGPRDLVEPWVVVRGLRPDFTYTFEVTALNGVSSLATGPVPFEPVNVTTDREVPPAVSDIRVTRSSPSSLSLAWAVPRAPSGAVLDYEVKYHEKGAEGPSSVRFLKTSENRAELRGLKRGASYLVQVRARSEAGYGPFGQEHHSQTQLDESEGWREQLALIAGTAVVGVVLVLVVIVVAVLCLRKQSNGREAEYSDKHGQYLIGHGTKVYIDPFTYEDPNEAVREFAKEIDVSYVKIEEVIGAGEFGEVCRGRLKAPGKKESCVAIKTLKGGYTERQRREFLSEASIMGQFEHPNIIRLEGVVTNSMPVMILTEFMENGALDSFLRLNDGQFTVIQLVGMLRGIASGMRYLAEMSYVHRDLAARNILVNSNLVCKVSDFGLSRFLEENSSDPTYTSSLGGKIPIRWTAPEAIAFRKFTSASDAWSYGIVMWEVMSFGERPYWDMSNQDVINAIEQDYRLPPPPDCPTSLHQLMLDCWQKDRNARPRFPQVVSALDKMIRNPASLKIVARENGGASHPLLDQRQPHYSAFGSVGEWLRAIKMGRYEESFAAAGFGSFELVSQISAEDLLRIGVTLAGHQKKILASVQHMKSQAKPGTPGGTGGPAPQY

As for `CC(C)(C)c1cc(NC(=O)Nc2ccc(Oc3ncnc4[nH]ncc34)c(F)c2)no1` [SKLB-677, 1-(4-(1H-pyrazolo[3,4-d]pyrimidin-4-yloxy)-3-fluorophenyl)-3-(5-tert-butylisoxazol-3-yl)urea], the remaining binding at 10 µM on ACVR1B was 100%; on CSF1R it was 0.3%; at CSNK2A2 it was 71%; at DAPK1 it was 74%; at DCAMKL1, 100%; at EPHB4 it was 1%. In addition, the remaining binding at 10 µM at FGR came to 9.4%; at IGF1R it was 70%; on ITK it was 36%; at MKNK2, 1%; on MRCKA, 100%; on RET, 0.05%. The remaining binding at 10 µM came out at 78% at SGK2, 0.2% at SLK, 50% at YANK2 and 100% on ZAP70. On MAST1, this compound came in with a Kd of over 10 µM. Also, the SP cells result (in the assay with KG-1 SP cells; in assay [1]) was “could almost eliminate SP cells” each time. The IC50 in the assay on HepG2 stood at 6.7 µM.

What is called Kd is the equilibrium constant for the complex coming apart. High values mean lower affinity, low ones higher affinity. As a reminder, the IC50 is the concentration at which inhibition is half-maximal. A high value points to weaker potency in that assay.
